Reference: paper PMC10281575, “PfCRT mutations conferring piperaquine resistance in falciparum malaria shape the kinetics of quinoline drug binding and transport” (PLOS Pathogens, 2023)
Several values for one entry are separate records, joined by “and”; a condition that tells them apart may be missing. Equal values may be shown once.

Biological target: T1, PfCRT^Dd2 (Plasmodium falciparum, UniProt Q8IBZ9, A220S/I356T/K76T/M74I/N326S/N75E/Q271E/R371I)
T1 sequence (Q8IBZ9 1-424 M74I/N75E/K76T/A220S/Q271E/N326S/I356T/R371I): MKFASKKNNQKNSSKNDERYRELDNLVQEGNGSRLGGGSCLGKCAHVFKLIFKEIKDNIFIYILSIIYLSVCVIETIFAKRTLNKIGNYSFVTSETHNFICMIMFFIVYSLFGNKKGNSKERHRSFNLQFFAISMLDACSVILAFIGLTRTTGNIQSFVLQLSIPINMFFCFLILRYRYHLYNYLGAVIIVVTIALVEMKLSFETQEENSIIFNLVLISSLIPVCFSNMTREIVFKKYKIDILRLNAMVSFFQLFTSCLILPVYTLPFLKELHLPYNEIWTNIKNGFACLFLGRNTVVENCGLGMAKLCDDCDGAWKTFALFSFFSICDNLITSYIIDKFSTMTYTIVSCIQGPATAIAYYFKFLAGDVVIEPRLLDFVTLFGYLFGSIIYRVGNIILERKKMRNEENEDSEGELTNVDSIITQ
Assay: Competition kinetics of drug transport (radiolabeled substrate plus cold inhibitor), PfCRT^Dd2-expressing oocytes
Format: cell-based
Set-up: expressed in transfected cells; host or cells: Xenopus laevis oocytes injected with in vitro transcribed RNA (pSP64T)
Details: single replicates
Description: The experimental procedure and the data analysis were as described above.
The difference between the two models lies in the value of α, a parameter describing how much the affinity for the substrate changes when the inhibitor is already bound, and vice versa. […] The resulting Vmax,app values and the Vmax,app/KM,app ratios were plotted as a function of the inhibitor concentration (Fig 5A).
Drug transport assays were performed as previously described. Briefly, measurements of radiolabeled drug uptake were made over 1 h, unless otherwise specified. […] Where specified, one or more unlabeled drugs were also present at the indicated concentrations. […] The uptake assays were terminated by removing the oocytes from the reaction medium and washing them three times with 2 mL of ice-cold ND96 buffer. Each oocyte was transferred to a separate scintillation vial and lysed by the addition of 200 μL of a 5% SDS solution. The radioactivity in the sample was measured using a liquid scintillation analyser Tri-Carb 4910 TR (PerkinElmer). Water-injected oocytes were analyzed in parallel as a negative control. The buffer from each condition was measured in duplicate in parallel to each experiment to transform counts per minute into pmol of drug. Drug uptake attributable to PfCRT was determined by subtracting the background uptake from water-injected oocytes from that of PfCRT-expressing oocytes. In all cases, at least three independent experiments were performed on oocytes from different frogs, and for each condition in an experiment, measurements were made from 10 oocytes per treatment.
The following equations were adopted from Segel (1993), and the reader is referred to that text for the assumptions made in the author’s approach in the derivation of each equation [31]. The concentration of substrate is denoted as [S1] and the concentration of the inhibiting substrate is denoted as [S2]. KS1 and KS2 are the dissociation constants for the respective substrate-protein complexes.
Analyses of the kinetic data were performed using SigmaPlot version 13.0 and Python. The drug competition models were globally fit to the kinetic data using the least-squares method and ranked according to their corrected Akaike information criterion difference (ΔAICC) and their Akaike weight, using Python. The two top-ranked models were compared using an F-test.
This factor reflects how much the affinity of the transporter for one drug changes when the other drug is already bound in the protein cavity. In the former model, α > 0 and α ≠ 1. In the latter model, it could be thought of as if α = 1. Because of this, discriminating between the two models also means determining the value of α. In Mixed-type (Partial) inhibition, the apparent maximal velocity (Vmax,app) is given by Eq 22, Vmax,app=Vmax(1+β[S2]/αKS2)/(1+[S2]/αKS2) (Eq 22)
Vmax,app is the maximal rate of substrate transport at a certain inhibitor concentration. The half-maximal inhibitory concentration is given by the term in the denominator different from [S2], which in this case is αKS2. This means that by plotting Vmax,app as a function of [S2], the value of αKS2 can be derived after fitting the curve to Eq 23.
The half-maximal inhibitory concentration derived from this hyperbolic equation is equal to KS2. By plotting Vmax,app/KM,app as a function of [S2], one can derive KS2 after fitting the curve to Eq 25. The value of α can then be calculated dividing αKS2 by KS2.

With `Clc1ccc2c(N3CCN(CCCN4CCN(c5ccnc6cc(Cl)ccc56)CC4)CC3)ccnc2c1` [PPQ, piperaquine] the “PfCRTDd2-mediated PPQ transport 10 µM PPQ” value (0 µM CQ) was 7.56 pmol oocyte-1 h-1 and 10.37 pmol oocyte-1 h-1 and 9.52 pmol oocyte-1 h-1, the “PfCRTDd2-mediated PPQ transport 10 µM PPQ” value (25 µM CQ) was 5.90 pmol oocyte-1 h-1 and 7.56 pmol oocyte-1 h-1 and 12.12 pmol oocyte-1 h-1 and the “PfCRTDd2-mediated PPQ transport 10 µM PPQ” value (50 µM CQ) was 9.48 pmol oocyte-1 h-1 and 7.04 pmol oocyte-1 h-1 and 8.33 pmol oocyte-1 h-1. For the same compound, the “PfCRTDd2-mediated PPQ transport 10 µM PPQ” value (125 µM CQ) was 5.75 pmol oocyte-1 h-1 and 8.54 pmol oocyte-1 h-1 and 9.92 pmol oocyte-1 h-1, the “PfCRTDd2-mediated PPQ transport 10 µM PPQ” value (200 µM CQ) was 6.96 pmol oocyte-1 h-1 and 8.23 pmol oocyte-1 h-1 and 6.73 pmol oocyte-1 h-1 and the “PfCRTDd2-mediated PPQ transport 10 µM PPQ” value (400 µM CQ) was 6.34 pmol oocyte-1 h-1 and 7.80 pmol oocyte-1 h-1 and 6.93 pmol oocyte-1 h-1. The “PfCRTDd2-mediated PPQ transport 50 µM PPQ” value (0 µM CQ) was 28.14 pmol oocyte-1 h-1 and 21.87 pmol oocyte-1 h-1 and 89.78 pmol oocyte-1 h-1 and 46.28 pmol oocyte-1 h-1 and 30.01 pmol oocyte-1 h-1 and 33.33 pmol oocyte-1 h-1, the “PfCRTDd2-mediated PPQ transport 50 µM PPQ” value (25 µM CQ) was 38.92 pmol oocyte-1 h-1 and 37.28 pmol oocyte-1 h-1 and 39.83 pmol oocyte-1 h-1 and the “PfCRTDd2-mediated PPQ transport 50 µM PPQ” value (50 µM CQ) was 39.65 pmol oocyte-1 h-1 and 31.99 pmol oocyte-1 h-1 and 26.06 pmol oocyte-1 h-1. The “PfCRTDd2-mediated PPQ transport 50 µM PPQ” value (125 µM CQ) was 26.33 pmol oocyte-1 h-1 and 27.41 pmol oocyte-1 h-1 and 34.41 pmol oocyte-1 h-1, the “PfCRTDd2-mediated PPQ transport 50 µM PPQ” value (200 µM CQ) was 26.27 pmol oocyte-1 h-1 and 27.81 pmol oocyte-1 h-1 and 32.81 pmol oocyte-1 h-1 and the “PfCRTDd2-mediated PPQ transport 50 µM PPQ” value (400 µM CQ) was 19.16 pmol oocyte-1 h-1 and 25.87 pmol oocyte-1 h-1 and 24.41 pmol oocyte-1 h-1. The “PfCRTDd2-mediated PPQ transport 100 µM PPQ” value (0 µM CQ) was 59.97 pmol oocyte-1 h-1 and 33.72 pmol oocyte-1 h-1 and 64.52 pmol oocyte-1 h-1, the “PfCRTDd2-mediated PPQ transport 100 µM PPQ” value (25 µM CQ) was 49.79 pmol oocyte-1 h-1 and 57.28 pmol oocyte-1 h-1 and 48.06 pmol oocyte-1 h-1 and the “PfCRTDd2-mediated PPQ transport 100 µM PPQ” value (50 µM CQ) was 52.12 pmol oocyte-1 h-1 and 55.31 pmol oocyte-1 h-1 and 42.70 pmol oocyte-1 h-1. For the same compound, the “PfCRTDd2-mediated PPQ transport 100 µM PPQ” value (125 µM CQ) was 58.54 pmol oocyte-1 h-1 and 43.73 pmol oocyte-1 h-1 and 42.26 pmol oocyte-1 h-1, the “PfCRTDd2-mediated PPQ transport 100 µM PPQ” value (200 µM CQ) was 53.47 pmol oocyte-1 h-1 and 42.58 pmol oocyte-1 h-1 and 43.06 pmol oocyte-1 h-1 and the “PfCRTDd2-mediated PPQ transport 100 µM PPQ” value (400 µM CQ) was 44.21 pmol oocyte-1 h-1 and 36.58 pmol oocyte-1 h-1 and 41.48 pmol oocyte-1 h-1. For the same compound, the “PfCRTDd2-mediated PPQ transport 200 µM PPQ” value (0 µM CQ) was 87.13 pmol oocyte-1 h-1 and 109.05 pmol oocyte-1 h-1 and 57.84 pmol oocyte-1 h-1, the “PfCRTDd2-mediated PPQ transport 200 µM PPQ” value (25 µM CQ) was 75.61 pmol oocyte-1 h-1 and 76.21 pmol oocyte-1 h-1 and 79.18 pmol oocyte-1 h-1 and the “PfCRTDd2-mediated PPQ transport 200 µM PPQ” value (50 µM CQ) was 78.47 pmol oocyte-1 h-1 and 73.08 pmol oocyte-1 h-1 and 76.77 pmol oocyte-1 h-1. The “PfCRTDd2-mediated PPQ transport 200 µM PPQ” value (125 µM CQ) was 74.89 pmol oocyte-1 h-1 and 84.24 pmol oocyte-1 h-1 and 63.70 pmol oocyte-1 h-1, the “PfCRTDd2-mediated PPQ transport 200 µM PPQ” value (200 µM CQ) was 63.70 pmol oocyte-1 h-1 and 74.56 pmol oocyte-1 h-1 and 71.51 pmol oocyte-1 h-1 and the “PfCRTDd2-mediated PPQ transport 200 µM PPQ” value (400 µM CQ) was 58.65 pmol oocyte-1 h-1 and 62.98 pmol oocyte-1 h-1 and 61.98 pmol oocyte-1 h-1. For the same compound, the “PfCRTDd2-mediated PPQ transport 300 µM PPQ” value (0 µM CQ) was 90.42 pmol oocyte-1 h-1 and 110.91 pmol oocyte-1 h-1 and 77.44 pmol oocyte-1 h-1, the “PfCRTDd2-mediated PPQ transport 300 µM PPQ” value (25 µM CQ) was 75.46 pmol oocyte-1 h-1 and 93.24 pmol oocyte-1 h-1 and 86.36 pmol oocyte-1 h-1 and the “PfCRTDd2-mediated PPQ transport 300 µM PPQ” value (50 µM CQ) was 67.98 pmol oocyte-1 h-1 and 93.33 pmol oocyte-1 h-1 and 91.69 pmol oocyte-1 h-1. The “PfCRTDd2-mediated PPQ transport 300 µM PPQ” value (125 µM CQ) was 84.14 pmol oocyte-1 h-1 and 87.90 pmol oocyte-1 h-1 and 73.92 pmol oocyte-1 h-1, the “PfCRTDd2-mediated PPQ transport 300 µM PPQ” value (200 µM CQ) was 93.36 pmol oocyte-1 h-1 and 73.07 pmol oocyte-1 h-1 and 56.74 pmol oocyte-1 h-1 and 73.66 pmol oocyte-1 h-1 and the “PfCRTDd2-mediated PPQ transport 300 µM PPQ” value (400 µM CQ) was 91.78 pmol oocyte-1 h-1 and 67.51 pmol oocyte-1 h-1 and 51.42 pmol oocyte-1 h-1. The “PfCRTDd2-mediated PPQ transport 400 µM PPQ” value (0 µM CQ) was 113.37 pmol oocyte-1 h-1 and 109.88 pmol oocyte-1 h-1 and 74.49 pmol oocyte-1 h-1, the “PfCRTDd2-mediated PPQ transport 400 µM PPQ” value (25 µM CQ) was 93.45 pmol oocyte-1 h-1 and 86.08 pmol oocyte-1 h-1 and 106.77 pmol oocyte-1 h-1 and the “PfCRTDd2-mediated PPQ transport 400 µM PPQ” value (50 µM CQ) was 86.04 pmol oocyte-1 h-1 and 73.87 pmol oocyte-1 h-1 and 103.05 pmol oocyte-1 h-1. For the same compound, the “PfCRTDd2-mediated PPQ transport 400 µM PPQ” value (125 µM CQ) was 77.98 pmol oocyte-1 h-1 and 81.70 pmol oocyte-1 h-1 and 88.40 pmol oocyte-1 h-1, the “PfCRTDd2-mediated PPQ transport 400 µM PPQ” value (200 µM CQ) was 78.64 pmol oocyte-1 h-1 and 88.68 pmol oocyte-1 h-1 and 77.87 pmol oocyte-1 h-1 and the “PfCRTDd2-mediated PPQ transport 400 µM PPQ” value (400 µM CQ) was 83.22 pmol oocyte-1 h-1 and 67.13 pmol oocyte-1 h-1 and 69.51 pmol oocyte-1 h-1. For the same compound, the “PfCRTDd2-mediated PPQ transport 500 µM PPQ” value (0 µM CQ) was 118.94 pmol oocyte-1 h-1 and 82.44 pmol oocyte-1 h-1 and 112.35 pmol oocyte-1 h-1 and the “PfCRTDd2-mediated PPQ transport 500 µM PPQ” value (25 µM CQ) was 95.67 pmol oocyte-1 h-1 and 107.56 pmol oocyte-1 h-1 and 100.57 pmol oocyte-1 h-1.
